Test results from ChEMBL document CHEMBL1201862, “PubChem BioAssay data set” (2004).
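Step 1: Grow cells in 96-well plates. Step 2: Expose to compound for 48 hours at 5 concentrations. Step 3: Interpolate endpoints linearly; if unreached, use highest concentration. At the GI50, growth is halved.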 Activity calls are given as the source filed them. Cut-off read from the data, not from the text of the source: active = GI50 up to about 1.1 µM and inactive = higher.

Tests used:
Test in all cases: DTP human tumour cell line panel, 48 h
[1] = tested on: A549
[2] = tested on: CCRF-CEM
[3] = tested on: DMS-114
[4] = tested on: DU-145
[5] = tested on: HCC 2998
[6] = tested on: HT-29
[7] = tested on: Hs-578T
[8] = tested on: IGROV-1
[9] = tested on: K562
[10] = tested on: Malme-3M
[11] = tested on: NCI-H23
[12] = tested on: NCI-H460
[13] = tested on: NCI/ADR-RES
[14] = tested on: OVCAR-3
[15] = tested on: OVCAR-5
[16] = tested on: SNB-75
[17] = tested on: TK-10
[18] = tested on: UACC-62
[19] = tested on: UO-31
[20] = tested on: MCF7

Measured: GI50

C=C(CN(C)C)C(=O)c1ccccc1OC
inactive: [1] > 67.8 µM | [2] 2.51 µM | [3] 21.1 µM | [4] > 45 µM | [5] 34.6 µM | [6] 20.5 µM | [7] 20.7 µM | [8] 24.4 µM | [9] 4.35 µM | [10] 7.66 µM | [11] 17.9 µM | [12] 38.1 µM | [13] 20.7 µM | [14] 16 µM | [15] 19.1 µM | [16] 27.2 µM | [17] 16.1 µM | [18] 21 µM | [19] 16.4 µM

C=C[C@]1(C)CC(O)C2C(=C)C(=O)OC2[C@H]1C(=C)C=O (stereo partly drawn)
active: [2] 0.925 µM | [20] 1.09 µM
inactive: [1] 18.4 µM | [3] 5.73 µM | [4] 12.1 µM | [5] 14.1 µM | [6] 2.33 µM | [7] 14.4 µM | [8] 8.87 µM | [9] 2.52 µM | [10] 1.86 µM | [11] 2.68 µM | [12] 14.5 µM | [14] 2.67 µM | [15] 10.8 µM | [16] 18.6 µM | [17] 3.94 µM | [18] 1.79 µM | [19] 6.37 µM

CC(=O)OC(C)(C)/C=C/C(=O)[C@](C)(O)[C@H]1[C@H](O)C[C@@]2(C)[C@@H]3CC=C4[C@@H](C=C(O)C(=O)C4(C)C)[C@]3(C)C(=O)C[C@]12C [CUCURBITACIN E]
active: [1] 0.0296 µM | [2] 0.0298 µM | [3] 0.0715 µM | [4] 0.0262 µM | [5] 0.0501 µM | [6] 0.0202 µM | [7] 0.0473 µM | [8] 0.0366 µM | [9] 0.0681 µM | [20] 0.054 µM | [10] 0.0366 µM | [11] 0.055 µM | [12] 0.0222 µM | [13] 0.129 µM | [14] 0.0459 µM | [15] 0.186 µM | [16] 0.0187 µM | [17] 0.0479 µM | [18] 0.065 µM | [19] 0.0235 µM

O=P(O)(NCCCl)NCCCl [PALIFOSFAMIDE]
inactive: [1] 81.5 µM | [2] 47.5 µM | [3] 7.33 µM | [4] 92.9 µM | [5] > 100 µM | [6] > 10 µM | [7] > 100 µM | [8] > 100 µM | [9] > 100 µM | [20] > 100 µM | [10] > 100 µM | [11] 64.6 µM | [12] 28.8 µM | [13] > 100 µM | [14] > 10 µM | [15] > 10 µM | [16] > 65.6 µM | [17] > 10 µM | [18] 38.6 µM | [19] > 100 µM
